pEC50: −log10 of the molar value.
Target: T1, human FSH receptor (Homo sapiens, UniProt P23945)
T1 construct: expressed in transfected cells
T1 sequence (P23945 18-695): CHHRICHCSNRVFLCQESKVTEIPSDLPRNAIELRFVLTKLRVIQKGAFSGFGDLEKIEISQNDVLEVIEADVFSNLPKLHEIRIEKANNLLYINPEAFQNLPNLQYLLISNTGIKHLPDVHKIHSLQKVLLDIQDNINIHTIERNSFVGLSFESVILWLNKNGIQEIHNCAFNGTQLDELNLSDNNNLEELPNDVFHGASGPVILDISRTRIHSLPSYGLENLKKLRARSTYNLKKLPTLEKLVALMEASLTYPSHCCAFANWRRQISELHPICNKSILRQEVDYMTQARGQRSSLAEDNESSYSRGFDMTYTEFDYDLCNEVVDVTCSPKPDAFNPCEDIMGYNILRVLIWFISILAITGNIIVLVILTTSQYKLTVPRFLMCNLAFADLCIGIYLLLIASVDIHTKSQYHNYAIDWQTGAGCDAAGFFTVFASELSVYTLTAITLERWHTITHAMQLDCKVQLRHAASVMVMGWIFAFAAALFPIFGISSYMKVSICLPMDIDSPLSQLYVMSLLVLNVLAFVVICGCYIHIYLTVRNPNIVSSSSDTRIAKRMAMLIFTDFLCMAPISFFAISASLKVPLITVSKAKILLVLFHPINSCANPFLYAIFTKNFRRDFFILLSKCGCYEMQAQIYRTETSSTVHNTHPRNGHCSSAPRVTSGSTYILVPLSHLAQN
Test: hFSHRago (CHO luc): agonistic activity at the human FSH receptor expressed in CHO cells, CRE-luciferase reporter
Type: cell-based
Details: CHO cells stably transfected with human FSH receptor and CRE/luciferase reporter; 4 hours of incubation

Row | pEC50 | Compound
1 | 6.93 | COc1cc2c(cc1OCCN(C)C)-c1c(-c3cccs3)cc(C(=O)N(C)C(C)(C)C)n1CC2 [Example 73, 9-(2-Dimethylamino-ethoxy)-8-methoxy-1-thiophen-2-yl-5,6-dihydro-pyrrolo[2,1-α]isoquinoline-3-carboxylic acid tert-butyl-methyl-amide; trifluoro acetic acid]
2 | 7.24 | COc1cc2c(cc1OCC1CC1)-c1c(-c3cccs3)cc(C(=O)N3CCCN(C(C)=O)CC3)n1CC2 [Example 77, 1-[4-(9-Cyclopropylmethoxy-8-methoxy-1-thiophen-2-yl-5,6-dihydro-pyrrolo[2,1-α]iso-quinoline-3-carbonyl)-perhydro-1,4-diazepin-1-yl]-ethanone]
3 | 7.02 | COc1cc2c(cc1OCC1CCCO1)-c1c(-c3cccs3)cc(C(=O)N3CCCN(C(C)=O)CC3)n1CC2 (stereo not drawn) [Example 78, 1-{4-[8-Methoxy-9-(tetrahydro-furan-2-ylmethoxy)-1-thiophen-2-yl-5,6-dihydro-pyrrolo[2,1-α]isoquinoline-3-carbonyl]-perhydro-1,4-diazepin-1-yl}-ethanone]
4 | 7.85 | COc1cc2c(cc1OC1CCCC1)-c1c(-c3cccs3)cc(C(=O)N3CCCN(C(C)=O)CC3)n1CC2 [Example 79, 1-[4-(9-Cyclopentyloxy-8-methoxy-1-thiophen-2-yl-5,6-dihydro-pyrrolo[2,1-α]isoquinoline-3-carbonyl)-perhydro-1,4-diazepin-1-yl]-ethanone]
5 | 8.22 | COc1cc2c(cc1CC(C)C)-c1c(-c3cccs3)cc(C(=O)N(C)C(C)(C)CO)n1CC2 [Example 81, 9-Isobutyl-8-methoxy-1-thiophen-2-yl-5,6-dihydro-pyrrolo[2,1-α]isoquinoline-3-carboxylic acid (2-hydroxy-1,1-dimethyl-ethyl)-methyl-amide]
6 | 8.24 | COC1=CC2CCn3c(C(=O)N4CCCN(C(=O)C5CCC5)CC4)cc(-c4cccs4)c3C2C=C1Br (stereo not drawn) [Example 82, (9-Bromo-8-methoxy-1-thiophen-2-yl-5,6,6a,10a-tetrahydro-pyrrolo[2,1--α]isoquinolin-3-yl)-(4-cyclobutanecarbonyl-[1,4]diazepan-1-yl)-methanone]
7 | 8.37 | COc1cc2c(cc1C#N)-c1c(-c3cccs3)cc(C(=O)N(C)C(C)(C)C)n1CC2 [Example 83, 9-Cyano-8-methoxy-1-thiophen-2-yl-5,6-dihydro-pyrrolo[2,1--α]isoquinoline-3-carboxylic acid tert-butyl-methyl-amide]
8 | 8.54 | CCOC(=O)c1cc2c(cc1OC)CCn1c(C(=O)N3CCCN(C(=O)C4CCC4)CC3)cc(-c3cccs3)c1-2 [Example 84, 3-(4-Cyclobutanecarbonyl-[1,4]diazepane-1-carbonyl)-8-methoxy-1-thiophen-2-yl-5,6-dihydro-pyrrolo[2,1--α]isoquinoline-9-carboxylic acid ethyl ester]
9 | 7.95 | COc1cc2c(cc1Br)-c1c(-c3cccs3)cc(C(=O)N(C)C(C)(C)C)n1CC2 [Example 85a, 9-Bromo-8-methoxy-1-thiophen-2-yl-5,6-dihydro-pyrrolo[2,1--α]isoquinoline-3-carboxylic acid tert-butyl-methyl-amide]
10 | 8.57 | CC#Cc1cc2c(cc1OC)CCn1c(C(=O)N(C)C(C)(C)C)cc(-c3cccs3)c1-2 [Example 85b, 8-Methoxy-9-prop-1-ynyl-1-thiophen-2-yl-5,6-dihydro-pyrrolo[2,1--α]isoquinoline-3-carboxylic acid tert-butyl-methyl-amide]
11 | 7.16 | COc1cc2c(cc1C(=O)N1CCOCC1)-c1c(-c3cccs3)cc(C(=O)N(C)C(C)(C)C)n1CC2 [Example 86]
12 | 7.62 | COc1cc2c(cc1C(=O)NCCO)-c1c(-c3cccs3)cc(C(=O)N(C)C(C)(C)C)n1CC2 [Example 87, 8-Methoxy-1-thiophen-2-yl-5,6,6a,10a-tetrahydro-pyrrolo[2,1-α]isoquinoline-3,9-dicarboxylic acid 3-(tert-butyl-methyl-amide) 9-[(2-hydroxy-ethyl)-amide]]
13 | 6.51 | CN(C(=O)c1cc(-c2cccs2)c2n1CCc1ccc(N3CCCC3=O)cc1-2)C(C)(C)C [Example 88, 9-(2-Oxo-pyrrolidin-1-yl)-1-thiophen-2-yl-5,6-dihydro-pyrrolo[2,1-α]isoquinoline-3-carboxylic acid tert-butyl-methyl-amide]
14 | 6.61 | CN(C(=O)c1cc(-c2cccs2)c2n1CCc1ccc(N3CCOC3=O)cc1-2)C(C)(C)C [Example 89, 9-(2-Oxo-oxazolidin-3-yl)-1-thiophen-2-yl-5,6-dihydro-pyrrolo[2,1-α]isoquinoline-3-carboxylic acid tert-butyl-methyl-amide]
15 | 6.66 | CN(C(=O)c1cc(-c2cccs2)c2n1CCc1ccc(N3CCNC3=O)cc1-2)C(C)(C)C [Example 90, 9-(2-Oxo-imidazolidin-1-yl)-1-thiophen-2-yl-5,6-dihydro-pyrrolo[2,1-α]isoquinoline-3-carboxylic acid tert-butyl-methyl-amide]
16 | 8.22 | COc1cc2c(cc1C=O)-c1c(-c3cccs3)cc(C(=O)N(C)C(C)(C)C)n1CC2 [Example 91a, 9-Formyl-8-methoxy-1-thiophen-2-yl-5,6-dihydro-pyrrolo[2,1-α]isoquinoline-3-carboxylic acid tert-butyl-methyl-amide]
17 | 9.40 | COc1cc2c(cc1CCCO)-c1c(-c3cccs3)cc(C(=O)N(C)C(C)(C)C)n1CC2 [Example 91d, 9-(3-hydroxy-propyl)-8-methoxy-1-thiophen-2-yl-5,6-dihydro-pyrrolo[2,1-α]iso-quinoline-3-carboxylic acid tert-butyl-methyl-amide]
18 | 8.52 | COc1cc2c(cc1C=C(F)F)-c1c(-c3cccs3)cc(C(=O)N(C)C(C)(C)C)n1CC2 [Example 93]
19 | 8.52 | COc1cc2c(cc1[N+](=O)[O-])-c1c(-c3cccs3)cc(C(=O)N(C)C(C)(C)C)n1CC2 [Example 94, 8-Methoxy-9-nitro-1-thiophen-2-yl-5,6-dihydro-pyrrolo[2,1-α]isoquinoline-3-carboxylic acid tert-butyl-methyl-amide]
20 | 7.35 | COc1cc2c(cc1N)-c1c(-c3cccs3)cc(C(=O)N(C)C(C)(C)C)n1CC2 [Example 95, 9-Amino-8-methoxy-1-thiophen-2-yl-5,6-dihydro-pyrrolo[2,1-α]isoquinoline-3-carboxylic acid tert-butyl-methyl-amide]
21 | 8.55 | COc1cc2c(cc1NC(=O)CN(C)C)-c1c(-c3cccs3)cc(C(=O)N(C)C(C)(C)C)n1CC2 [Example 96, 9-(2-Dimethylamino-acetylamino)-8-methoxy-1-thiophen-2-yl-5,6,6 a,10a-tetrahydro-pyrrolo[2,1-α]isoquinoline-3-carboxylic acid tert-butyl-methyl-amide]
22 | 8.40 | COc1cc2c(cc1NC(=O)CN1CCC1)-c1c(-c3cccs3)cc(C(=O)N(C)C(C)(C)C)n1CC2 [Example 97, 9-(2-Azetidin-1-yl-acetylamino)-8-methoxy-1-thiophen-2-yl-5,6-dihydro-pyrrolo[2,1-α]isoquinoline-3-carboxylic acid tert-butyl-methyl-amide]

Row | Compound | pEC50
23 | COc1cc2c(cc1OCCC(C)C)-c1c(-c3cccs3)cc(C(=O)N3CCCN(C(C)=O)CC3)n1CC2 [Example 80, 1-{4-[8-Methoxy-9-(3-methyl-butoxy)-1-thiophen-2-yl-5,6-dihydro-pyrrolo[2,1-α]isoquinoline-3-carbonyl]-perhydro-1,4-diazepin-1-yl}-ethanone] | 7.00
